Test results from US11326207B2, “Sequencing using non-natural nucleotides” (Ultima Genomics, Inc., priority 2017, dated 2022).

Legend:
Assay type in all cases: biochemical
Bst 2.0 DNA polymerase [1] = test: Homopolymer assay of dCTP analogs (Example 9); settings: rates of fluorescence, homopolymer template
Procedure: (§1) A homopolymer assay was performed to investigate the effectiveness of E-dCTP and P-dUTP as nucleotide analogs of dCTP. 50 μl solutions containing a template nucleic acid molecule and primer and Bst 2.0 DNA polymerase are placed in a microplate reader and the fluorescence of the solution is measured in kinetic mode. A fluorescein attached to an oligonucleotide (indicated with a * in FIG. 7) was quenched in the substrate due to the proximity of complementary G bases. Addition of dCTP and/or dCTP analogs causes extension of the 3′ end of the primer, formation of double-stranded DNA, and unquenching of the fluorescein. The fluorescence increases with the addition of multiple nucleotides.

Bst 2.0 DNA polymerase [2] = test: Homopolymer assays of nucleotide analogs (Example 10); settings: Natural Nucleotide C (dCTP = 1); template oligo 333, primer 221L
Procedure: as §1
Additional homopolymer assays were performed according to the procedure outlined in Example 8 using different nucleotides and nucleotide analogs.
To test for dUTP or TTP incorporation, oligo 332 was used as a template and oligo 221L was used as a primer. To test for dCTP incorporation, oligo 333 was used as a template and oligo 221L was used as a primer. To test for dGTP incorporation, oligo 334 was used as a template and oligo 221L was used as a primer. To test for dATP incorporation, hairpin oligo 221 was used as both a primer and template.

Bst DNA polymerase = target: T1, Bst DNA polymerase (Geobacillus stearothermophilus, UniProt P52026); test: Replacement of dCTP with P-dCTP, context metric (Example 10)
T1 sequence (P52026 1-876): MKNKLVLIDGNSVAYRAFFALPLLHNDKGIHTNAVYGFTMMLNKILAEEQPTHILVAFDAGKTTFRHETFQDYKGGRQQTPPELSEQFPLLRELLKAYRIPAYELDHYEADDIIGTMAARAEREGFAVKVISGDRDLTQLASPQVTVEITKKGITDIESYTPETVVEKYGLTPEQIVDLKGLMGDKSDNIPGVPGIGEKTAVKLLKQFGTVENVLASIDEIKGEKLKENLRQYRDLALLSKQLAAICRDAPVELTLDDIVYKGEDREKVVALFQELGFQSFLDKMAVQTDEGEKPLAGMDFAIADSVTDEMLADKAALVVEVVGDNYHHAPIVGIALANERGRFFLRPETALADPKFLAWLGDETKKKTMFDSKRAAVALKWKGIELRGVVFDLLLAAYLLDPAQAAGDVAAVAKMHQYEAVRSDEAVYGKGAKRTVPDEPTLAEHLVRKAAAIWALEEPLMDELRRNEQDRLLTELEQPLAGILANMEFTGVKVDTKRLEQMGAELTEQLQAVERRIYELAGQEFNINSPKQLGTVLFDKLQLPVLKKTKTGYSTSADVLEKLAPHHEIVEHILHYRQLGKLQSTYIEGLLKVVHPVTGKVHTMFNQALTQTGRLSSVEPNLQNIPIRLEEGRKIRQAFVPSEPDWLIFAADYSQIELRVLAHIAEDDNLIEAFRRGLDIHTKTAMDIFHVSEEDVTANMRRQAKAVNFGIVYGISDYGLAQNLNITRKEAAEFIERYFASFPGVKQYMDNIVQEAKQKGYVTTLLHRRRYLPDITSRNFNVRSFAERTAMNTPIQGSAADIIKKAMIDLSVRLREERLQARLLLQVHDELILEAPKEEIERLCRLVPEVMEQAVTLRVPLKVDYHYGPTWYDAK
Excerpt: A microscope slide surface was modified with polyaminosilane to allow the attachment of 1 micron beads each containing one of three different oligonucleotide templates. To each template was bound an oligonucleotide primer and Bst DNA polymerase. Solutions of mixtures of labeled and unlabeled nucleotide, of one type at a time, were exposed to the surface, followed by a wash solution. The fluorescence of labeled beads was detected and quantitated. The fluorescence label was cleaved by treatment with tris(hydroxypropyl)phosphine (THP) after each step.
Context was measured for each experiment. Context is given by the context metric, C, which is defined as the (maximum-minimum signal)/average signal.
Experiments were performed replacing dCTP with P-dCTP for three different oligonucleotide templates.

| SMILES | rate of incorporation compared with natural dCTP (Bst 2.0 DNA polymerase [1]) | Relative Rate in Homopolymer Assay (Bst 2.0 DNA polymerase [2]) | C (context metric) (Bst DNA polymerase; Oligonucleotide template 1) | C (context metric) (Bst DNA polymerase; Oligonucleotide template 2) | C (context metric) (Bst DNA polymerase; Oligonucleotide template 3) |
| --- | --- | --- | --- | --- | --- |
| C#Cc1cn([C@H]2C[C@H](O)[C@@H](COP(=O)(O)OP(=O)(O)OP(=O)(O)O)O2)c(=O)nc1N [E-dCTP, 5-ethynyl-2′-deoxycytidine 5′triphosphate] | much faster than that of natural dCTP | >1 |  |  |  |
| Nc1ccn([C@H]2C[C@H](O)[C@@H](COP(=O)(O)OP(=O)(O)OP(=O)(O)O)O2)c(=O)n1 [dCTP, deoxycytidine triphosphate] |  | 1 | 0.85 | 0.72 | 0.70 |
